Experimental data reported in US20250170097A1, “CATHEPSIN INHIBITORS AND USE THEREOF IN A METHOD FOR DETECTING AND TREATING RESISTANCE TO IMMUNOTHERAPY” (YISSUM RESEARCH DEVELOPMENT COMPANY OF THE HEBREW …, priority 2022, published 2025).

How the values were obtained:
[1] = molecular target: Recombinant cathepsin B (rCatB) (Homo sapiens, UniProt P07858); assay: Competitive inhibition of recombinant cathepsin B, residual activity labeled with GB123, SDS PAGE; assay type: biochemical; settings: fluorescent SDS-PAGE, FIG. 8C
Experimental: (§1) Recombinant cathepsin B and L (rCatB and rCatL, respectively) were incubated for 45 minutes at 37° C. with 1 μl of increasing concentrations of cathepsin inhibitors (GB111-NH2 or MGB, respectively), residual cathepsin activity was labeled by addition of 1 μM of GB123 fluorescent activity-based probe for 45 minutes at 37° C., sample buffer was added for 2 min and the sample was boiled at 100° C. for 2 minutes. Equal amount of each sample was separated by a 12.5% SDS PAGE, this experiment was repeated 3 times. The gel was scanned for fluorescence by a Typhoon scanner. The bands were quantified by ImageJ software and then IC50 curves were generated from triplicate experiment by Prism-GraphPad software.

[2] = molecular target: Recombinant cathepsin L (rCatL) (Homo sapiens, UniProt P07711); assay: Competitive inhibition of recombinant cathepsin L, residual activity labeled with GB123, SDS PAGE; assay type: biochemical; settings: fluorescent SDS-PAGE, FIG. 8C
Experimental: as §1

[3] = tested on: A549, HepG2, U87, and Hacat cells; assay: Cell viability assay (methylene blue, 72 hours); assay type: cell-based
Experimental: The cells were incubated with compounds at indicated concentrations for 72 hours at 37° C. and then fixed by 2.5% glutaraldehyde for 1 hour at room temperature and stained with methylene blue. Growth was compared to vehicle-treated cells designated as 100%.

[4] = tested on: endogenous cathepsin activity (cathepsin L/B) in lung cancer A549 cells; assay: Cathepsin inhibition in intact A549 cells, residual activity labeled with GB123; assay type: cell-based; settings: for IC50: 1 hour at 37° C., FIG. 9B
Experimental: The ability of MGB to penetrate cells and inhibit endogenous cathepsin activity was tested in lung cancer A549 cells. This model (lung cells) was chosen since corona virus is known to infect the respiratory system. Intact cells were treated with inhibitors and the residual activity was determined by GB123. Inhibition was detected on SDS-PAGE Potent inhibitors reduce the residual activity and as a result, a reduction in fluorescently labeled cathepsins is seen (FIG. 9A). The cathepsin activity was quantification and IC50 curves were plotted.

[5] = tested on: endogenous cathepsin activity; assay: Endogenous inhibition of cathepsin activity, ACE2-ab-MGB compared to MGB (FIG. 10); assay type: cell-based; settings: FIG. 10A-10B
Experimental: 2.5*10^5 cells per well (A549, U87 or HepG2), were seeded in 6 well plates one day before incubation with indicated concentrations of inhibitors (GB111-NH2 or MGB, respectively) for 1 hour at 37° C. Residual cathepsin activity was labeled by the addition of 2 μM of GB123 for 2 hours at 37° C. Sample buffer was added and samples were boiled at 100° C. for 10 min. Equal protein amounts of each sample were resolved by a 12.5% SDS PAGE. a) Gels were scanned for fluorescence by a Typhoon scanner. b) The gel bands were quantified using ImageJ software and IC50 curves were generated from triplicate experiments using Prism-GraphPad software.

OCI-Ly19 DLBCL cells = assay: Lymphoma cell death assay (caspase-3 activation, annexin V staining); assay type: cell-based
Experimental: OCI-Ly19 DLBCL cells were treated with GB111-NH2 for 1 hour and the cells were evaluated for caspase-3 activation and annexin V staining as indications for apoptosis.
Caspase-3 activation was assessed through the evaluation of caspase-3 enzyme activity (100 ng of protein) with the substrate Ac-DEVD-pNA (N-acetyl-Asp-Glu-Val-Asp-p-nitroaniline) in a colorimetric assay 24 hours post treatment.

[6] = tested on: blood cells isolated from peripheral blood and bone marrow of CLL patients; assay: Annexin V staining and cathepsin S activity in blood cells of CLL patients; assay type: cell-based, human
Experimental: FIGS. 14A-14D are bar graphs and images presenting the inhibition of cathepsins induces apoptosis in OCI-Ly19 cells. (14A) Caspase-3 activation; (14B) FACS analysis of stained cells with anti-Annexin V; (14C) Mononuclear cells from CLL patients were isolated by FICOL, treated with 5 uM GB111-NH2 for 1 hour and stained with anti-Annexin V; and (14D) labeled crude detergent lysates.
The ability of GB111-NH2 to promote lymphoma cell death was examined. […] Cathepsin S activity in these cells was initially high and was reduced to 40% (+10%).

[7] = tested on: CD74 in OCI-Ly3 and OCI-Ly19; assay: CD74 expression by Western blot and FACS; assay type: cell-based
Text: The CD74 expression was examined by Western blot (WB) and FACS in OCI-Ly3 and OCI-Ly19 treated with GB111-NH2, LPS or LPS pretreated with GB111-NH2.

[8] = tested on: NF-κB reporter in OCI-Ly19 cells; assay: NF-κB signaling assay (luciferase reporter); assay type: cell-based; settings: 5 μM, 0.5 μg LPS, 24 h induction; potent as SC-514
Experimental: Cells were transfected by electroporation with NF-κB reporter plasmid. After selection, the cells were harvested, and the luciferase activities were measured and normalized. 5 μM GB111-NH2 inhibited activity of NF-κB reporter in OCI-Ly 19 cells induced by 0.5 μg LPS (24 h induction). 10 μM SC-514, a specific suppressor of NF-κB activity, was used as positive control.

B16-F10 tumors = assay: Resistant B16-F10 melanoma tumor-bearing mice; assay type: in vivo; settings: combination of GB111-NH2 (30 mg/kg) and anti PD-1 (100 μg/dose), every 4 days from day 5
Experimental: A sensitive IT treatment model, D4M tumors and, a more resistant model, IT B16-F10 tumor Cells were injected subcutaneously (SC) to the back of the mice and their growth was measured continuously by caliper. Anti PD-1 was administered intra peritoneally (IP) twice, a few days after the tumor could be palpated, and on indicated days and doses as described in the methods, changes in tumor volume were measured during the experiment (FIG. 4A).
To determine the cathepsin activity in both models, one day prior to sacrifice, GB123 (a fluorescent cathepsin activity-based probe) was administered IV, and tumors were harvested for further biochemical examination. Tumor tissue was subjected to fluorescence-activated cell sorting (FACS) analysis to determine the percentage of tumor associated macrophages (TAMs) that express high cathepsin activity.
The effect of the inhibition of cathepsin activity on the resistance to IT was examined using the resistant B16-F10 tumor-bearing mice with IT (anti-PD-1), GB111-NH2 (cathepsin inhibitor), or their combinations. The B16-F10 tumor-bearing mice were treated every 4 days, starting on day 5 after cell inoculation with anti PD-1 (100 μg/dose), GB111-NH2 (30 mg/kg) or their combinations; IT was given a day before GB111-NH2 (a group of GB111-NH2 first and IT a day later was included). […] In addition, survival plots were generated (FIG. 6B).

cathepsins B, L and S = assay: Cathepsin activity in lysates of patients' cells and hematological malignancy cell lines, GB123 labeling; assay type: cell-based, human
Experimental: Cell lysates from hematological malignancies patients were pretreated with vehicle, or a cathepsin inhibitor GB111-NH2 for 0.5 hour, then labeled by addition of 1 μmol/L GB123 probe for 1 hour. Equal amounts of protein were separated and visualized by scanning of the gel with a Typhoon flatbed laser scanner. Each lane was taken from a different patient. MZL-Marginal zone lymphoma, CLL-chronic lymphocytic leukemia, DLBCL-Diffuse large B-cell lymphoma.
Crude detergent lysates from cells that were pretreated with either cathepsin inhibitor GB111-NH2 or with control DMSO; vehicle for 20 minutes and then labeled by addition of 1 μmol/L GB123 probe for 1 hour. Equal amounts of protein (see Coomassie) were separated and visualized by scanning of the gel with a Typhoon flatbed laser scanner.
To verify activity dependent labeling, indicated samples were pre-incubated with GB111-NH2, a potent cathepsin inhibitor, prior to GB123 labeling. After incubation with GB123, a fluorescent scan of SDS-PAGE was done. Cathepsin activity was detected in lysates of cells from human Chronic lymphocytic leukemia (CLL) and Diffuse large B-cell lymphoma (DLBCL) patients as well as healthy population (FIG. 13).

Recombinant cathepsin L (rCatL), sequence (P07711 114-333, species assumed): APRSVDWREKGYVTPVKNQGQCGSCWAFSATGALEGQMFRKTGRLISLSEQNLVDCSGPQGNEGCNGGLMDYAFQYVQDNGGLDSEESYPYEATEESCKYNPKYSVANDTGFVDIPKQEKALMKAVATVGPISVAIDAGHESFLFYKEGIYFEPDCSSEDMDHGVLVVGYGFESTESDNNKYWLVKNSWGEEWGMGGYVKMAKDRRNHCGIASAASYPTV

Cc1cccc(C)c1C(=O)OCC(=O)[C@H](CCCCN)NC(=O)[C@H](Cc1ccccc1)NC(=O)[C@H](Cc1ccccc1)NC(=O)CCCCCN1C(=O)C=CC1=O [MGB]
inhibition of rCatB [1]: inhibits
inhibition of rCatL [2]: inhibits
cell viability ([3]; even at a concentration of 5 μM): safe to cells
IC50 [4]: 1900 nM
IC50 [5]: 1700 ± 600 nM

Cc1cccc(C)c1C(=O)OCC(=O)[C@H](CCCCN)NC(=O)[C@H](Cc1ccccc1)NC(=O)OCc1ccccc1 [GB111-NH2]
cell viability ([3]; even at low concentrations as 1 μM): reduced cell viability significantly
increase in caspase-3 activity (OCI-Ly19 DLBCL cells; OCI-Ly19, 24 hours post treatment): 4.5 fold
increase in Annexin V staining (OCI-Ly19 DLBCL cells; OCI-Ly19, treated for 1 hour): 2.5 fold
Annexin V staining ([6]; 5 uM for 1 hour, p value 0.016): increased Annexin V staining
Cathepsin S activity, reduced to ([6]; CLL patients' cells): 40%
surface expression of CD74 (FACS) [7]: reduces the surface expression of CD74
LPS-induced NF-κB transcriptional activity [8]: suppressed LPS-induced NF-κB transcriptional activity
Tumor volume (B16-F10 tumors): significantly smaller tumors
cathepsin activity in OCI-Ly19 cells (cathepsins B, L and S; NF-κB reporter cells treated with LPS): blocked cathepsin activity
cathepsins activity (cathepsins B, L and S; patients' cells and lymphoma cell lines, pretreatment before GB123 labeling): abolished cathepsins activity
potency relative to MGB [4]: over 200 fold
IC50 [4]: 6 nM
